Laboratory results published in patent US9944589B2, “Cycloproplyamine derivatives useful as inhibitors of histone demethylases KDM1A” (Istituto Europeo de Oncologia S.r.L., priority 2012, dated 2018).
Where a name gives a salt, the structure may show the parent alone.

Experiments:
[1] = tested on: Acute promyelocytic leukemia NB4 cells; assay: Cell growth (CellTiter-Fluor cell viability assay); assay type: cell-based; details: Homo sapiens, NB-4, 48 h, range classes, read-out: IC50 [μM], cell growth inhibitory assay
Source text: CellTiter-Flor® (Promega) is as a nonlytic, single-reagent-addition fluorescence assay that measures the relative number of living cells in a culture population after experimental manipulation. The CellTiter-Fluor™ Cell Viability Assay measures the conserved and constitutive protease activity within live cells and therefore acts as a marker for cell viability.
Acute promyelocytic leukemia NB4 cells, (obtained from the Deutsche Sammlung von Mikroorganismen and Zellkulturen) in exponential growth, were incubated for 48 h with different concentrations of the inhibitors. After 48 h a volume of CellTiter-Fluor® Reagent equal to one fifth of volume of cell culture medium was added. The content was mixed and incubates for at least 90 min at 37° C. degree to obtain a stable signal. The fluorescence was recorded using an excitation wavelength of 360 nm and an emission at 535 nm. The IC50 was calculated using GraphPad Software.

[2] = molecular target: T1, human recombinant KDM1A (LSD1)/CoRest (Homo sapiens, UniProt O60341); assay: Assay of enzyme inhibition of KDM1A (LSD1), Amplex UltraRed/peroxidase coupled; assay type: biochemical; details: 15 min preincubation, 4.5 μM mono-methylated H3-K4 peptide, range classes, read-out: IC50 [μM], KDM1A inhibition assay
T1 construct: made in house; host or cells: E. coli
How it was run: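 KDM1A/CoRest complex with inhibitor (e.g. 0–100 μM) and Amplex UltraRed/peroxidase preincubated 15 min at RT. Substrate: mono-methylated H3K4 21-mer peptide in 50 mM Tris pH 8, 0.05 mg/ml BSA, aerobic. IC50 from duplicates run twice, background-corrected.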

Row | IC50 [1] | IC50 [2] | Compound
1 | 10 to 50 µM | < 0.1 µM | CC[C@@]1(N)C[C@H]1c1ccc(NC(=O)Cc2ccc3ccccc3c2)cc1 (relative stereo) [Example A-74, N-[4-trans-2-amino-2-ethyl-cyclopropyl] phenyl]-2-(2-naphthyl) acetamide hydrochloride]
2 | 10 to 50 µM | < 0.1 µM | N[C@]1(c2ccccc2)C[C@H]1c1ccc(NC(=O)c2ccccc2)cc1 (relative stereo) [Example A-75, N-[4-[trans-2-amino-2-phenyl-cyclopropyl]phenyl] benzamide hydrochloride]
3 | 10 to 50 µM | 0.1 to 1 µM | CC[C@@]1(N)C[C@H]1c1cccc(NC(=O)Cc2cccc3ccccc23)c1 (relative stereo) [Example A-77, N-[3-[trans-2-amino-2-ethyl-cyclopropyl]phenyl]-2-(1-naphthyl) acetamide hydrochloride]
4 | 10 to 50 µM | 0.1 to 1 µM | CC[C@@]1(N)C[C@H]1c1cccc(NC(=O)c2cccc(Cl)c2)c1 (relative stereo) [Example A-80, N-[3-[trans-2-amino-2-ethyl-cyclopropyl]phenyl]-3-chloro-benzamide hydrochloride]
5 | ≤ 10 µM | < 0.1 µM | CC[C@@]1(N)C[C@H]1c1ccc(NC(=O)c2ccc(N3CCOC3=O)cc2)cc1 (relative stereo) [Example A-83, N-[4-[trans-2-amino-2-ethyl-cyclopropyl]phenyl]-4-(2-oxooxazolidin-3-yl)benzamide hydrochloride]
6 | 50 to 100 µM | < 0.1 µM | CC[C@@]1(N)C[C@H]1c1ccc(NC(=O)c2ccccc2)c(F)c1 (relative stereo) [Example A-86, N-[4-[trans-2-amino-2-ethyl-cyclopropyl]-2-fluoro-phenyl]benzamide hydrochloride]
7 | 10 to 50 µM | < 0.1 µM | CC[C@@]1(N)C[C@H]1c1ccc(NC(=O)c2ccc(-c3ccccc3)cc2)c(F)c1 (relative stereo) [Example A-87, N-[4-[trans-2-amino-2-ethyl-cyclopropyl]-2-fluoro-phenyl]-4-phenyl-benzamide hydrochloride]
8 | 10 to 50 µM | < 0.1 µM | CC[C@@]1(N)C[C@H]1c1ccc(NC(=O)c2ccc(N3CCOCC3)cc2)cc1 (relative stereo) [Example A-88, N-[4-[trans-2-amino-2-ethyl-cyclopropyl]phenyl]-4-morpholino-benzamide 2,2,2-trifluoroacetic acid]
9 | 10 to 50 µM | 0.1 to 1 µM | CC[C@@]1(N)C[C@H]1c1cccc(NC(=O)c2ccc(-c3ccccc3)cc2)c1 (relative stereo) [Example A-91, N-[3-[trans-2-amino-2-ethyl-cyclopropyl]phenyl]-4-phenyl-benzamide hydrochloride]
10 | 10 to 50 µM | 0.1 to 1 µM | CC[C@@]1(N)C[C@H]1c1cccc(NC(=O)c2ccc3ccccc3c2)c1 (relative stereo) [Example A-92, N-[3-[trans-2-amino-2-ethyl-cyclopropyl]phenyl] naphthalene-2-carboxamide hydrochloride]
11 | ≤ 10 µM | 0.1 to 1 µM | CC[C@@]1(N)C[C@H]1c1ccc(NC(=O)c2ccc(NC(=O)OCc3ccccc3)cc2)c(F)c1 (relative stereo) [Example A-95, benzyl N-[4-[[4-[trans-2-amino-2-ethyl-cyclopropyl]-2-fluoro-phenyl]carbamoyl]phenyl]carbamate hydrochloride]
12 | 10 to 50 µM | < 0.1 µM | CC[C@@]1(N)C[C@H]1c1ccc(NC(=O)c2ccncc2)cc1 (relative stereo) [Example A-101, N-[4-(trans-2-amino-2-ethyl-cyclopropyl)phenyl] pyridine-4-carboxamide dihydrochloride]

Continued, compound first:

Row | Compound | IC50 [1] | IC50 [2]
13 | N[C@]1(Cc2ccc3ccccc3c2)C[C@H]1c1ccc(NC(=O)c2ccc3ccccc3c2)cc1 (relative stereo) [Example A-72, N-[4-[trans-2-amino-2-(2-naphthylmethyl)cyclopropyl]phenyl] naphthalene-2-carboxamide hydrochloride] | ≤ 10 µM | 0.1 to 1 µM
14 | N[C@]1(Cc2ccc3ccccc3c2)C[C@H]1c1ccc(NC(=O)c2ccc(-c3ccccc3)cc2)cc1 (relative stereo) [Example A-73, N-[4-[trans-2-amino-2-(2-naphthylmethyl)cyclopropyl]phenyl]-4-phenyl-benzamide hydrochloride] | 10 to 50 µM | 0.1 to 1 µM
15 | N[C@]1(Cc2ccc3ccccc3c2)C[C@H]1c1ccc(NC(=O)Cc2cccc3ccccc23)cc1 (relative stereo) [Example A-76, N-[4-[trans-2-amino-2-(2-naphthylmethyl)cyclopropyl]phenyl]-2-(1-naphthyl)acetamide hydrochloride] | ≤ 10 µM | 0.1 to 1 µM
16 | N[C@]1(Cc2ccc3ccccc3c2)C[C@H]1c1ccc(NC(=O)c2cccc(Cl)c2)cc1 (relative stereo) [Example A-79, N-[4-[trans-2-amino-2-(2-naphthylmethyl)cyclopropyl]phenyl]-3-chloro-benzamide hydrochloride] | 10 to 50 µM | < 0.1 µM
17 | N[C@]1(c2ccccc2)C[C@H]1c1ccc(NC(=O)c2cccc(NC(=O)OCc3ccccc3)c2)cc1 (relative stereo) [Example A-84, benzyl N-[3-[(4-[trans-2-amino-2-phenyl-cyclopropyl]phenyl)carbamoyl]phenyl]carbamate 2,2,2-trifluoroacetic acid] | 10 to 50 µM | < 0.1 µM
18 | N[C@]1(c2ccccc2)C[C@H]1c1ccc(NC(=O)c2ccc3ccccc3c2)cc1 (relative stereo) [Example A-85, N-[4-[trans-2-amino-2-phenyl-cyclopropyl]phenyl] naphthalene-2-carboxamide hydrochloride] | ≤ 10 µM | < 0.1 µM
19 | N[C@]1(c2ccccc2)C[C@H]1c1ccc(NC(=O)c2ccc(-c3ccccc3)cc2)cc1 (relative stereo) [Example A-89, N-[4-[trans-2-amino-2-phenyl-cyclopropyl]phenyl]-4-phenyl-benzamide 2,2,2-trifluoroacetic acid] | ≤ 10 µM | < 0.1 µM
20 | N[C@]1(c2ccccc2)C[C@H]1c1ccc(NC(=O)c2cccc3ccccc23)cc1 (relative stereo) [Example A-90, N-[4-[trans-2-amino-2-phenyl-cyclopropyl]phenyl] naphthalene-1-carboxamide hydrochloride] | ≤ 10 µM | < 0.1 µM
21 | CC[C@@]1(N)C[C@H]1c1ccc(NC(=O)c2ccc(N3CCN(C)CC3)cc2)cc1 (relative stereo) [Example A-97, N-[4-[trans-2-amino-2-ethyl-cyclopropyl]phenyl]-4-(4-methylpiperazin-1-yl)benzamide 2,2,2-trifluoroacetic acid] | 10 to 50 µM | < 0.1 µM
22 | CC[C@@]1(N)C[C@H]1c1ccc(NC(=O)c2ccc(N3CCOCC3)c(NC(=O)OCc3ccccc3)c2)cc1 (relative stereo) [Example A-99, benzyl N-[5-[[4-[trans-2-amino-2-ethyl-cyclopropyl]phenyl]carbamoyl]-2-morpholino-phenyl]carbamate 2,2,2-trifluoroacetic acid] | ≤ 10 µM | < 0.1 µM
